Measurements as given in patent US9809521B2, “Cannabidinoid derivatives” (priority 2011, dated 2017).
Like-named read-outs stand apart in the source and are kept apart here.

How the values were obtained:
MDA-MB231 cells [1] = experiment: MTT cell proliferation/viability assay; conditions: for reversal of inhibition of cell viability by CB2 receptor antagonist SR14458: 2 days; for IC50: Homo sapiens
Description: (§1) The structure of O-1442 and O-1663 are almost identical with the exception of one R group. A smaller subset of the same analogs, including O-1442 and O-1663, were further screened for their ability to inhibit 4T1 breast cancer cell viability in anticipation of running in vivo experiments in immune competent mice (TABLE 5).
(§2) To directly test whether the O-1663 CBD analog could co-target two distinct cannabinoid antitumor pathways, the effects of CBD and the O-1663 CBD analog on cell viability with multiple antagonists were probed (FIG. 25). […] The ability of the O-1663 CBD analog and CBD to inhibit invasion was next compared (FIG. 25, panel C).

4T1 cells [2] = experiment: 4T1 i.v. mouse model of breast cancer metastasis, treatment from one day after injection; format: in vivo; conditions: for total amount of metastatic foci: 1 mg/kg i.p., 2 days after injection; for effect of CB2 receptor antagonist SR14458 on anti-metastatic activity: 14 days
Method: In-vivo model of breast cancer metastases: 4T1 cells were injected directly into the tail vein of syngeneic BALB/c mice. […] Two days after i.v. injection of 4T1 cells, the tumor bearing mice were injected i.p. once a day with vehicle or compound (1 mg/kg).
The 4T1 intravenous (i.v.) mouse model of breast cancer metastasis to assess the activity of CBD in vivo was utilized. […] One day after i.v. injection of the breast cancer cells, mice were treated daily for two weeks by intra-peritoneal injection with vehicle (used as a control) or CBD at a dose range of 0.1 to 5 mg/kg.
A survival study was carried out (FIG. 4, panel C).
To provide further support for this hypothesis in vivo, mice bearing 4T1 tumors were treated with CBD and the O-1663 CBD analog in the presence of a CB2 receptor antagonist (FIG. 27, panels D and E). […] In addition, a combination treatment with CBD and THC was included.
In-vivo studies of breast cancer metastases with CBD or O-1663 CBD analog. 4T1 cells were injected into the tail vein of syngeneic BALB/c mice and then were intraperitoneal injected 2 days later with either vehicle, CBD (1 mg/kg), or O-1663 CBD analog (1 mg/kg).

MDA-MB231 cells [3] = experiment: Boyden chamber invasion assay; format: cell-based, human; conditions: for IC50: Homo sapiens
Method: Boyden chamber MDA-MB231 cell invasion studies with CBD, Δ^9-THC, or WIN 55,212-2. Invasion is an important step towards breast cancer cell metastasis. Therefore, the effects of several cannabinoids were tested on their ability to modulate the migratory and invasiveness activity of the most aggressive human breast cancer cell line, MDA-MB231, in a reconstituted basement membrane in a Boyden chamber.
Assays using Id-1 promoter reporter transfected MDA-MB231 cells with CBD. To determine if Id-1 represented a key mediator of CBD effects in highly aggressive breast cancer cells, Id-1 was constitutively expressed into MDA-MB231 cells (+)Id-1 as described in FIG. 2. The ectopic Id-1 gene, which is not under the control of the endogenous promoter, was introduced in the cells using the pLXSN retroviral vector. As a control, cells were infected with an empty pLXSN vector (−)Id-1.
Boyden chamber MDA-MB231 cell invasion studies with CBD and O-1663 CBD analog. Boyden chamber studies for invasion by MDA-MB231 or U251 cells were performed with either CBD or O-1663 CBD analog.
as §2

p8 and LC3 = experiment: p8 mRNA and LC3 (autophagy marker) in MDA-MB231 cells; format: cell-based, human; conditions: two days
4T1 cells [4] = experiment: Cell viability assay; format: cell-based, mouse; conditions: Mus musculus
Description: as §1

ROS = ROS measurement in MDA-MB231 cells; format: cell-based, human; conditions: for generation of ROS: two days, approximate IC50 for CBD and THC
Description: In culture, CBD-induced generation of ROS is a primary mechanism that leads to inhibition of cell growth, invasion, and survival across multiple cancers. The generation of ROS by CBD leads to the inhibition of Id-1 expression in breast cancer cells. […] The ability of CBD and the O-1663 CBD analog to stimulate the production of ROS was next compared. […] The involvement of CB2 receptors in the productions of ROS produced by CBD and the O-1663 CBD analog was next investigated.

MDA-MB231 cells [5] = experiment: Xenograft mouse model of human breast cancer lung metastasis; format: in vivo
Method: In-vivo metastatic studies using a Xenograph mouse model for human breast cancer with CBD. […] Lung metastases were generated in Nude mice after tail vein injection of 1×10^6 MDA-MB231-luc-D3H2LN cells. One day after the injection, the tumor bearing mice were injected i.p. once a day with vehicle or 0.5 mg/kg and 1 mg/kg CBD for three weeks. Visible lung metastases were then counted and measured by using a dissecting microscope.

U251 cells = experiment: MTT cell proliferation assay; conditions: Homo sapiens
4T1 cells [6] = experiment: 4T1 i.v. mouse model, advanced stage metastasis, treatment from day seven; format: in vivo; conditions: for medium increase in survival: 0.5 or 1 mg/kg daily from seven days after injection
Method: To determine whether CBD could inhibit the formation of lung tumor foci in more advanced stages of metastasis, mice were treated at a time point where visual lung metastatic foci were already formed (as shown at day seven in FIG. 7, panel A). Mice were injected i.v. with 4T1 cells were kept for one week in order to allow for the formation of visible lung metastatic foci. The mice were then treated with CBD.
In-vivo late stage metastatic studies using a Xenograph mouse model for human breast cancer with CBD. […] Lung metastases were generated in BALB/c mice after tail vein injection of 20×10^5 mouse 4T1 cells. […] One week after the tail vein injection of 20×10^5 mouse 4T1 cells, the tumor bearing mice were injected i.p. once a day with vehicle or 1 mg/kg and 10 mg/kg CBD for seven days. Visible lung metastases were counted and measured by using a dissecting microscope.
The activity of CBD and the O-1663 CBD analog to inhibit the formation of lung tumor foci in more advanced stages of metastasis was then compared. Mice were treated at a time point where visual lung metastatic foci were already formed. Mice were injected i.v. with 4T1 cells and kept for one week in order to allow for the formation of visible lung metastatic foci. The mice were then treated with CBD and the O-1663 CBD analog. […] A survival study was then carried out where the activity of CBD to O-1663 CBD analog was compared (FIG. 28, panel C).
In-vivo advanced stage metastasis survivability studies in a mouse model with CBD or O-1663 CBD analog. To determine whether cannabinoids could inhibit the formation of lung tumor foci in more advanced stages of metastasis, we treated mice at a time point where visual lung metastatic foci were already formed (FIG. 30, panel A). Mice injected tail vein with 4T1 cell were kept for one week in order to allow for the formation of visual lung metastatic foci measuring up to 1 mm. The mice where then treated with drug for two months.

[7] = MDA-MB-231, read-out: IC50, MDA-MB231

C=C(C)[C@@H]1CCC(C)=C[C@H]1c1c(O)cc(CCCCC)cc1O [CBD, cannabidiol]
reversal of inhibition of cell viability by CB1 receptor antagonist (MDA-MB231 cells [1]; 4T1 and MDA-MB231 cells): had no effect on reversing the activity of CBD
reversal of inhibition of cell viability by ROS scavenger α-TOC (MDA-MB231 cells [1]; 4T1 and MDA-MB231 cells): able to reverse the inhibitory effects of CBD
reversal of inhibition of cell viability by CB2 receptor antagonist SR14458 (MDA-MB231 cells [1]; 4T1 and MDA-MB231 cells): not significant
IC50 (MDA-MB231 cells [1]; MDA-MB-231, 72 h, read-out: IC50, antiproliferative, MDA-MB231): 1300 nM
IC50 (MDA-MB231 cells [1]; [7]): 2200 nM
IC50 (MDA-MB231 cells [1]; MDA-MB-231, read-out: IC50, MDA-MB231 cell viability): 1900 nM
median increase in survival (4T1 cells [2]; 1 mg/kg daily from one day after injection): seven
total amount of metastatic foci (4T1 cells [2]): reduction of the total amount of metastatic foci
effect of CB2 receptor antagonist SR14458 on anti-metastatic activity (4T1 cells [2]; 1 mg/kg): not affected by co-administration with SR14458
inhibition of total breast cancer metastasis (4T1 cells [2]; i.p. daily two weeks, 0.1 to 5 mg/kg): up to 75%
EC50, total breast cancer metastasis (4T1 cells [2]; i.p. daily two weeks, CI=0.2-0.5): 0.3 mg/kg
cell invasiveness, (+)Id-1 cells (MDA-MB231 cells [3]; 1.5 μM, two days, cells ectopically expressing Id-1): did not inhibit cell invasiveness
cell invasiveness, control (−)Id-1 cells (MDA-MB231 cells [3]; 1.5 μM, two days, empty pLXSN vector): significant reduction in cell invasiveness
invasion of MDA-MB231 cells (MDA-MB231 cells [3]; 0.1, 1.0 or 1.5 μM): significantly reduced the invasion
IC50 (MDA-MB231 cells [3]; MDA-MB-231, 72 h, treated 3 days, modified Boyden chambers, read-out: IC50, invasion of MDA-MB231 cells): 1000 nM
IC50 (MDA-MB231 cells [3]; MDA-MB-231, Boyden chamber, confidence limits 110-610, read-out: IC50 for invasion): 260 nM
up-regulation of p8 and LC3 (p8 and LC3): did not produce up-regulation of p8 and LC3
IC50 (4T1 cells [4]; 4T1, Table 5, read-out: IC50, 4T1 cell viability): 1800 nM
reversal of ROS in the presence of SR14458 (ROS): small but significant reversal of ROS
generation of ROS (ROS): robust up-regulation of ROS
reduction in the number of metastases (MDA-MB231 cells [5]; MDA-MB231-luc-D3H2LN, 0.5 mg/kg and 1 mg/kg i.p. for three weeks): ≥ 70%
IC50 (U251 cells; U-251, 72 h, read-out: CBD IC50, U251): 600 nM
IC50 (U251 cells; U-251, read-out: IC50, U251): 2900 nM
reduction in the number of metastases (4T1 cells [6]; 1 mg/kg and 10 mg/kg i.p. for seven days, from one week after injection): ≥ 70%
median increase in survival (4T1 cells [6]; 1 mg/kg starting on day seven): only a day
growth of established lung metastatic foci (4T1 cells [6]; 0.5, 1 or 10 mg/kg i.p. for seven days): dose-dependently reduced the growth of established lung metastatic foci
medium increase in survival (4T1 cells [6]): 4 days
average median survival (4T1 cells [6]; treatment from one week after injection): 38 days

CCCCC(C)(C)c1cc(O)c(C2CCC(C3CCCCC3)CC2)c(O)c1 (stereo not shown) [Compound O-1663]
reversal of inhibition of cell viability by CB2 receptor antagonist SR14458 (MDA-MB231 cells [1]; 4T1 and MDA-MB231 cells): partially reverse the inhibitory effects
IC50 (MDA-MB231 cells [1]; [7]): 1200 nM
fold more active than CBD, MDA-MB231 cell viability (MDA-MB231 cells [1]; second screen): 2.2 fold
animals with a metastatic foci >2 mm (4T1 cells [2]; 1 mg/kg): one of five animals
total amount of metastatic foci (4T1 cells [2]): reduction of the total amount of metastatic foci
effect of CB2 receptor antagonist SR14458 on anti-metastatic activity (4T1 cells [2]; 1 mg/kg): partially reversed by the antagonist
fold more potent than CBD at inhibiting lung metastatic foci>2 mm (4T1 cells [2]; mouse, in vivo): 7.0 fold
fold more potent than CBD at inhibiting total metastasis (4T1 cells [2]; mouse, in vivo): 2.3 fold
fold more potent than CBD at inhibiting invasion (MDA-MB231 cells [3]): 1.7 fold
invasion by the cancerous cells compared with CBD (MDA-MB231 cells [3]; 1.0 μM, two days, MDA-MB231 or U251 cells): far superior to CBD in inhibiting invasion
IC50 (MDA-MB231 cells [3]; MDA-MB-231, 72 h, read-out: IC50, invasion of MDA-MB231 cells): 600 nM
up-regulation of p8 and LC3 (p8 and LC3): able to up-regulate p8 and the marker of autophagy LC3
IC50 (4T1 cells [4]; 4T1, read-out: IC50, 4T1 cell viability): 830 nM
ROS reversed in the presence of SR14458 (ROS): > 50%
generation of ROS (ROS): significantly more potent and efficacious than CBD at generating ROS
potency compared with CBD, human MDA-MB231 model of metastasis (MDA-MB231 cells [5]; i.p. daily six weeks): more potent than CBD
IC50 (U251 cells; U-251, read-out: IC50, U251): 530 nM
reduction of percent metastasis compared with CBD (4T1 cells [6]; 0.5 and 1 mg/kg): significantly more potent than CBD in reducing percent metastasis
medium increase in survival (4T1 cells [6]): 30 days
mice without visible lung metastatic foci (4T1 cells [6]; dissection microscope): 20%
mice still alive at end of study (4T1 cells [6]; treatment from day seven, 2 months): 50%
